The text below walks through data of ChEMBL document CHEMBL1154339, “Pyranocoumarins: a new class of anti-hyperglycemic and anti-dyslipidemic agents” (Bioorg Med Chem Lett, 2009).

In experiment [1] the target is T1, Glucose-6-phosphatase catalytic subunit 1 (Homo sapiens) (UniProt P35575).
T1 sequence (whole entry): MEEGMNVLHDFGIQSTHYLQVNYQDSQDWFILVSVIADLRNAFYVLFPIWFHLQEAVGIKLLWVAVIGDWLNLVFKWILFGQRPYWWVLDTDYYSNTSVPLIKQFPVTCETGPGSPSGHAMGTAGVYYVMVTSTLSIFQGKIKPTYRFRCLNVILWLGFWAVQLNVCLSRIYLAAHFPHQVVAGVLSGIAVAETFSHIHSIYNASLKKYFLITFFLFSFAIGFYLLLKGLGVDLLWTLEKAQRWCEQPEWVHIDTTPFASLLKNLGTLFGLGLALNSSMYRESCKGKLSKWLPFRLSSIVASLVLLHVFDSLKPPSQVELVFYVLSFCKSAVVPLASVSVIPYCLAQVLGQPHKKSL
Put plainly: Inhibition of glucose 6 phosphatase assessed as inorganic phosphate release at 100 uM.

Experiment [2] addresses T2, Tyrosine-protein phosphatase non-receptor type 1 (Homo sapiens, UniProt P18031).
T2 sequence (P18031 whole entry): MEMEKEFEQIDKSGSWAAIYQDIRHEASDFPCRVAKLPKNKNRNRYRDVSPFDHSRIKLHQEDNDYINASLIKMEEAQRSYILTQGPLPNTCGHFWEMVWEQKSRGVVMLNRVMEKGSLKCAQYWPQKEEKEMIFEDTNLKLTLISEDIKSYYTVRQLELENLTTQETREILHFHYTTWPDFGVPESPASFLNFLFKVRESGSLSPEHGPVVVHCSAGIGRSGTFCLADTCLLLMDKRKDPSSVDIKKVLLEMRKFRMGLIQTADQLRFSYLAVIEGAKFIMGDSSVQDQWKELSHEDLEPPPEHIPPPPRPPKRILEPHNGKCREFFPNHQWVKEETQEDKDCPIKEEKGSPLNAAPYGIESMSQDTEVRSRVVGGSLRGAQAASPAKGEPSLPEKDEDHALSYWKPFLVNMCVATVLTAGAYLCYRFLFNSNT
Nature of the experiment: Inhibition of PTP1B.

Experiment [3] deals with Rattus norvegicus. Nature of the experiment: Antidyslipidemic activity against triton WR-1339-induced hyperlipidemia in Charles Foster rat assessed as reduction in plasma triglyceride level at 100 mg/kg, po after 18 hrs. The experiment is classed as functional.
In experiment [4] the test system is Rattus norvegicus. Nature of the experiment: Antihyperglycemic activity in sucrose challenged streptozotocin-induced diabetic Sprague-Dawley rat model assessed as reduction in blood glucose level at 100 mg/kg after 24 hrs. It is filed as functional. Set-up: scale not given: the % may be the effect or the level left.
For experiment [5], the target named is Dipeptidyl peptidase 4 (Homo sapiens) (UniProt P27487). Put plainly: Inhibition of DPP4 at 100 uM.
Sequence of Dipeptidyl peptidase 4 (Homo sapiens) (P27487 whole entry, looked up): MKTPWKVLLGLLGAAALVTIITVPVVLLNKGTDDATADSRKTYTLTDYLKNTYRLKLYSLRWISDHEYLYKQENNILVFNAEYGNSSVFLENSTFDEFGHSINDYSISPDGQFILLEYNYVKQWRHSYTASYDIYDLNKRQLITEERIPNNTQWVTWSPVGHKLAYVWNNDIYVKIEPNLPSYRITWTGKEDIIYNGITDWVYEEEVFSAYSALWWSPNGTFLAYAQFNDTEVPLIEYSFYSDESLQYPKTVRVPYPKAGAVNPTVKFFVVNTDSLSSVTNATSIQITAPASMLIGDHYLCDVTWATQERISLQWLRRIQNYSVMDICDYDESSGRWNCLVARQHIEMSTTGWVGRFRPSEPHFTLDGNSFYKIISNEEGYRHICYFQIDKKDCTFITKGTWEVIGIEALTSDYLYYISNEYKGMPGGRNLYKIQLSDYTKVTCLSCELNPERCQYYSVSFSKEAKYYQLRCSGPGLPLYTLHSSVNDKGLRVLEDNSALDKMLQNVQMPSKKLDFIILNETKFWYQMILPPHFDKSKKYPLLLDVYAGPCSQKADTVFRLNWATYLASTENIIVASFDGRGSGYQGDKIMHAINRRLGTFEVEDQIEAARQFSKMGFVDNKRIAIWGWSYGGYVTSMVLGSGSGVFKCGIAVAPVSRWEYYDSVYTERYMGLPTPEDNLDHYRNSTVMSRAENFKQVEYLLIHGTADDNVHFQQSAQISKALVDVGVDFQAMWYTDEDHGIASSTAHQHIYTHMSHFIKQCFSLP
For experiment [6], the target named is Maltase-glucoamylase (Homo sapiens) (UniProt O43451). Put plainly: Inhibition of alpha-glucosidase at 100 uM.
Sequence of Maltase-glucoamylase (Homo sapiens) (O43451 whole entry, looked up): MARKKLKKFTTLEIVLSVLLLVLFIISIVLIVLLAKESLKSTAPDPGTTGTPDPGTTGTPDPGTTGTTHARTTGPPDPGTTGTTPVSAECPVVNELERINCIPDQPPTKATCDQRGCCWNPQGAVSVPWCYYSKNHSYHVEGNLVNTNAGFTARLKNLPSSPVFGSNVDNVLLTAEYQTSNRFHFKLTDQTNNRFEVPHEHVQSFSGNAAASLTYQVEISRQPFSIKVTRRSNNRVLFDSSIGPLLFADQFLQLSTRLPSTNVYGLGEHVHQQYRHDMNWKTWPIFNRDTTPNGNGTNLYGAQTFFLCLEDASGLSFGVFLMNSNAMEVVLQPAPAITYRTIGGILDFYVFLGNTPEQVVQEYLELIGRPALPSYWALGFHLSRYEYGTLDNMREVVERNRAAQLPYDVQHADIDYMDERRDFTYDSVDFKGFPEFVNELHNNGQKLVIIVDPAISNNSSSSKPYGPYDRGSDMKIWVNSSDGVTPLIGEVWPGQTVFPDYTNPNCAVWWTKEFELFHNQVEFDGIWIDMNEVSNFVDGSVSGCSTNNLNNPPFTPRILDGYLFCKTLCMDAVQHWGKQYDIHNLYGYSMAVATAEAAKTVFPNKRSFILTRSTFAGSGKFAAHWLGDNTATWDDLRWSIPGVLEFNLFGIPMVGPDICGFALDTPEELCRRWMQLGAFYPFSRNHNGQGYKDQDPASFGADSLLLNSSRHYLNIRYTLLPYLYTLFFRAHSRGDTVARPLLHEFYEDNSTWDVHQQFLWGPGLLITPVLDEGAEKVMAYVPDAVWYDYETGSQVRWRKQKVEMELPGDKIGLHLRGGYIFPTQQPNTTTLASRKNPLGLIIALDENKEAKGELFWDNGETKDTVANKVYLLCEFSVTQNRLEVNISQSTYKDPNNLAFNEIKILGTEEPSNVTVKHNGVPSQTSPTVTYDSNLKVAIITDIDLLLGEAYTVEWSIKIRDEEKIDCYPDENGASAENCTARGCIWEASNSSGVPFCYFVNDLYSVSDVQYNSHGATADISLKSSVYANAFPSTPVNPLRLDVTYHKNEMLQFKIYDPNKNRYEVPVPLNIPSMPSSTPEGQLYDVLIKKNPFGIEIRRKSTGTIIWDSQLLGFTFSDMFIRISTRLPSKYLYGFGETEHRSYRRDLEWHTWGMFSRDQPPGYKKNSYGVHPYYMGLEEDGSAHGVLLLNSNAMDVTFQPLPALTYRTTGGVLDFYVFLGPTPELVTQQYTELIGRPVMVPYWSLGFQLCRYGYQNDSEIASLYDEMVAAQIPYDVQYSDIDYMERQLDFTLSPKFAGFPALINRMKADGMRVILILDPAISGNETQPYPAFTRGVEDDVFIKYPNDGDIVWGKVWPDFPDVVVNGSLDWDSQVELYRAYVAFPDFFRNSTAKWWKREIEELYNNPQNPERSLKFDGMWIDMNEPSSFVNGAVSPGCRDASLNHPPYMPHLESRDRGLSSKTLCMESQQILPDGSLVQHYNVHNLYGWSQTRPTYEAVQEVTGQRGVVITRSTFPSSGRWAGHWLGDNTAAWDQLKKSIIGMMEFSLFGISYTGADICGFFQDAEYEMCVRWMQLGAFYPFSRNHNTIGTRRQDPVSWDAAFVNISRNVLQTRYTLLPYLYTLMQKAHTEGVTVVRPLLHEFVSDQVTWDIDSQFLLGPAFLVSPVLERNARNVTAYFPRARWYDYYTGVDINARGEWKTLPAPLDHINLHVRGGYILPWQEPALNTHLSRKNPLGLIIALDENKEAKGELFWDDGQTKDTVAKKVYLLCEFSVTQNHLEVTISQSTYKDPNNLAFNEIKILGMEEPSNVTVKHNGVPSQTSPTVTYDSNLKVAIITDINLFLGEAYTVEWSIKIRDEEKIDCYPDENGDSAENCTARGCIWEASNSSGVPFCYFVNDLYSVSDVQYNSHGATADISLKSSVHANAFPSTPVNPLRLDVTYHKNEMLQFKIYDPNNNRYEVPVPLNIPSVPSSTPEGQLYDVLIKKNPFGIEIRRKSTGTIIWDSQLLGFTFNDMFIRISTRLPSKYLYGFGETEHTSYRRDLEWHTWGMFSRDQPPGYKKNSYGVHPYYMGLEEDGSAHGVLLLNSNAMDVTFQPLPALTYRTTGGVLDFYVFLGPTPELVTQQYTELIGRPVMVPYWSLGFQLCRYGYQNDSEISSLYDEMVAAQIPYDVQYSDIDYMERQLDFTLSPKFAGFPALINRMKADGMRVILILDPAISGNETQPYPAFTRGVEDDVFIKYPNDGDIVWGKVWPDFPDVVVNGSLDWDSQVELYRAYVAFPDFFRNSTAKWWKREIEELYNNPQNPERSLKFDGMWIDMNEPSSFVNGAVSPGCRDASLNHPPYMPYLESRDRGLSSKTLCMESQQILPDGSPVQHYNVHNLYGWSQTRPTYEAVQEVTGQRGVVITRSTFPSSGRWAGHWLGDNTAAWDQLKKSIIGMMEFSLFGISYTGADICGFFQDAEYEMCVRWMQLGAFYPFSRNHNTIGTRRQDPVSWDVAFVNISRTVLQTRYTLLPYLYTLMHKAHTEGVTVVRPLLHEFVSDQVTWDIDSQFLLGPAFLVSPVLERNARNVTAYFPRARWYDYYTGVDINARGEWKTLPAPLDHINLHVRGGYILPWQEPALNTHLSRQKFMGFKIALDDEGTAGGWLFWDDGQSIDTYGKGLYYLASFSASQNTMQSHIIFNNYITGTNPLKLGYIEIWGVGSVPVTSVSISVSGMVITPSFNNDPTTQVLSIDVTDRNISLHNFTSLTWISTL
For experiment [7], the target named is T3, Tyrosine-protein phosphatase non-receptor type 1 (Homo sapiens) (UniProt P18031).
T3 sequence (whole entry): T2 sequence (P18031 whole entry)
Put plainly: Inhibition of PTP1B at 100 uM.

For experiment [8], the system named is Rattus norvegicus. Put plainly: Antidyslipidemic activity against triton WR-1339-induced hyperlipidemia in Charles Foster rat assessed as reduction in plasma total cholesterol level at 100 mg/kg, po after 18 hrs. The experiment is classed as functional.
Experiment [9] relates to Rattus norvegicus. Put plainly: Antihyperglycemic activity in sucrose loaded Charles Foster/Wistar rat model assessed as reduction in blood glucose level at 100 mg/kg. It is filed as functional. Set-up: scale not given: the % may be the effect or the level left.
Experiment [10] deals with Rattus norvegicus. Put plainly: Antidyslipidemic activity against triton WR-1339-induced hyperlipidemia in Charles Foster rat assessed as reduction in plasma phospholipid level at 100 mg/kg, po after 18 hrs. The experiment is classed as functional.
A short description of experiment [11]: Inhibition of glycogen phosphorylase assessed as inorganic phosphate release at 100 uM.
Experiment [12] relates to Mus musculus. Nature of the experiment: Antihyperglycemic in leptin receptor deficient mouse C57BL/KsBom-db assessed as blood glucose lowering activity at 100 mg/kg after 5 days by oral glucose tolerance test. The experiment is classed as functional.
For experiment [13], the system named is Mus musculus. Nature of the experiment: Antihyperglycemic in leptin receptor deficient mouse C57BL/KsBom-db assessed as blood glucose lowering activity at 100 mg/kg after 10 days by oral glucose tolerance test. The experiment is classed as functional.

By inhibition is commonly meant the percentage by which the read-out fell short of the control. The term IC50 denotes the concentration that gives 50% inhibition.

SMILES strings stand for the structures. Calls of active or inactive are those of the source. The rule behind the calls is not given here.

For `Cc1cc(=O)oc2c3c(ccc12)OCC(CO)(CN1CCOCC1)C3=O` (stereo not drawn), the inhibition in experiment [1] came out at 3.5%; in experiment [5] it was 12%; in [6], 34.3%; in [7] it was 83.3%. Moreover, in experiment [2], the IC50 came out at 52.4 µM. Also, the outcome with Rattus norvegicus [3], in the experiment on Rattus norvegicus [8] and in the experiment with Rattus norvegicus [10] was Active. The Activity in the experiment with Rattus norvegicus [4] is 25.3%; in the experiment on Rattus norvegicus [9] it was 28.2%. Besides, the inhibition entry in experiment [11] was “inactive”.

On to `CCCCN(CCCC)CC1(COCC)COc2ccc3c(C)cc(=O)oc3c2C1=O` (stereo not drawn), for which the inhibition in [1] is 11.1%; in experiment [6], 27.9%; in [7], 80.5%; in experiment [11], 8.7%. This molecule also came in with a 50% inhibitory concentration (IC50) in experiment [2] of 40.5 µM. The result in the experiment on Rattus norvegicus [3], with Rattus norvegicus [8] and in the experiment on Rattus norvegicus [10] was Active. Besides, the values for the Activity in the experiment on Rattus norvegicus [4] and in the experiment with Rattus norvegicus [9] were 24.4% and 30.6%, respectively. For the same molecule, in experiment [5], the inhibition entry was “inactive”.

On to `CCOCC1(CN2CCCCC2)COc2ccc3c(C)cc(=O)oc3c2C1=O` (stereo not drawn), for which the inhibition in [1] is 6.56%; in experiment [5], 12.6%; in [7] it was 88.5%; in experiment [11] it was 8.5%. Besides, the Activity stood at 19.5% with Mus musculus [12], 37.7% in the experiment on Rattus norvegicus [4], 42% in the experiment on Mus musculus [13] and 38.1% with Rattus norvegicus [9]. In [2], this molecule yielded an IC50 of 36.2 µM. In addition, the result in the experiment with Rattus norvegicus [3], in the experiment on Rattus norvegicus [8] and in the experiment with Rattus norvegicus [10] was Active. Moreover, the inhibition result in [6] is “inactive”.

With `Cc1cc(=O)oc2c3c(ccc12)OCC(CN1CCCCC1)(CN1CCCCC1)C3=O`, the inhibition stood at 13.8% in experiment [1]; 6.8% in experiment [5]; 7.3% in [6]; 33.3% in experiment [7]; 17.2% in experiment [11].

On to `Cc1ccc(C)c(OCCCC(C)(C)C(=O)O)c1` [GEMFIBROZIL], for which the results for the Activity with Rattus norvegicus [3], in the experiment on Rattus norvegicus [8] and in the experiment on Rattus norvegicus [10] were 36.1%, 37.1% and 39.1%, respectively.

As to `Cc1cc(=O)oc2c3c(ccc12)OCC(CO)(CN1CCCC1)C3=O` (stereo not drawn), the inhibition was 5.83% in [1]; 8.3% in experiment [5]; 22.1% in experiment [6]; 74.6% in [7]; 8.3% in [11]. In experiment [2], this molecule yielded an IC50 of 56.7 µM. The Activity in the experiment with Rattus norvegicus [4] is 24%; in the experiment with Rattus norvegicus [9], 30.3%.

With `CCN(CC)CC1(CN(CC)CC)COc2ccc3c(C)cc(=O)oc3c2C1=O`, the inhibition in experiment [1] was determined as 9.45%; in [5], 8.1%; in experiment [6], 8.5%; in experiment [7], 41.3%; in [11], 12.2%.

`Cc1cc(=O)oc2c3c(ccc12)OCC(CN1CCCC1)(CN1CCCC1)C3=O`: the inhibition in experiment [1] turned out to be 8.28%; in experiment [5] it was 8.2%; in [7], 29.8%; in [11], 15.2%. Besides, the inhibition result in experiment [6] is “inactive”.

On to `Cc1cc(=O)oc2c3c(ccc12)OCC(CN1CCN(C)CC1)(CN1CCN(C)CC1)C3=O`, for which the inhibition in experiment [1] was 13%; in experiment [5] it was 12.5%; in experiment [6] it was 6.4%; in experiment [7], 22%; in experiment [11], 10.2%.

Take `CCOCC1(CN(CC)CC)COc2ccc3c(C)cc(=O)oc3c2C1=O` (stereo not drawn): the inhibition in experiment [1] turned out to be 24.2%; in experiment [7] it was 74.1%. In [2], this molecule displayed an IC50 of 90.4 µM. In addition, the result in the experiment on Rattus norvegicus [3], in the experiment with Rattus norvegicus [8] and in the experiment with Rattus norvegicus [10] was Active. Also, the inhibition result in experiment [5], in experiment [6] and in [11] was “inactive” in each case.

On to `CCOCC1(CN2CCOCC2)COc2ccc3c(C)cc(=O)oc3c2C1=O` (stereo not drawn), for which the inhibition is 12.4% in [1], 92.2% in experiment [7] and 8.4% in [11]. Further, the Activity in the experiment on Mus musculus [12] is given as 21.1%; with Rattus norvegicus [4], 35.5%; with Mus musculus [13], 38%; in the experiment on Rattus norvegicus [9] it was 35.5%. Moreover, the IC50 in experiment [2] amounted to 24.5 µM. The result in the experiment with Rattus norvegicus [3], in the experiment with Rattus norvegicus [8] and with Rattus norvegicus [10] was Active. Moreover, the inhibition result in [5] and in experiment [6] was “inactive” in each case.

Regarding `Cc1cc(=O)oc2c3c(ccc12)OCC(CN1CCN(c2ccccc2)CC1)(CN1CCN(c2ccccc2)CC1)C3=O`, the inhibition in experiment [1] was determined as 21.5%; in [5], 15.2%; in experiment [6] it was 15.9%; in [7], 28.7%; in experiment [11], 22.1%.

`Cc1cc(=O)oc2c3c(ccc12)OCC(CN1CCN(c2ccccn2)CC1)(CN1CCN(c2ccccn2)CC1)C3=O`: the inhibition amounted to 28% in [1]; 9.8% in [5]; 15.8% in experiment [6]; 41.3% in experiment [7]; 11% in experiment [11].

`Cc1cc(=O)oc2c3c(ccc12)OCC(CO)(CN1CCCCC1)C3=O` (stereo not drawn): the inhibition in experiment [1] was found to be 7.36%; in experiment [6], 37.3%; in [7] it was 64%. In [2], this molecule gave a concentration for half-maximal inhibition (IC50) of 62.1 µM. The result in the experiment with Rattus norvegicus [3], in the experiment with Rattus norvegicus [8] and in the experiment with Rattus norvegicus [10] was Active. Besides, the inhibition result in [5] and in experiment [11] was “inactive” in each case.

Turning to `CCOCC1(CN2CCN(c3ccccc3)CC2)COc2ccc3c(C)cc(=O)oc3c2C1=O` (stereo not drawn), the values for the inhibition in experiment [1], in experiment [6] and in experiment [7] were 31.7%, 16.2% and 62.3%, respectively. This molecule also came in with an IC50 in experiment [2] of 70.6 µM. Besides, the inhibition result in experiment [5] and in experiment [11] was “inactive” throughout.

Regarding `Cc1cc(=O)oc2c3c(ccc12)OCC(CN1CCOCC1)(CN1CCOCC1)C3=O`, the inhibition was 6.78% in experiment [1]; 8.8% in experiment [5]; 8.3% in experiment [6]; 24.7% in [7]; 12.8% in experiment [11].

Turning to `CCOCC1(CN2CCN(c3ccccn3)CC2)COc2ccc3c(C)cc(=O)oc3c2C1=O` (stereo not drawn), the inhibition in experiment [1] came out at 9.67%; in experiment [6] it was 11.3%; in experiment [7] it was 54.5%; in experiment [11], 30.1%. For the same molecule, the IC50 in experiment [2] worked out at 76.2 µM. Moreover, the inhibition entry in experiment [5] is “inactive”.

As for `CCOCC1(CN2CCN(C)CC2)COc2ccc3c(C)cc(=O)oc3c2C1=O` (stereo not drawn), the inhibition in experiment [1] came out at 17.4%; in experiment [5], 7.9%; in [7] it was 70.3%; in experiment [11], 26.9%. Moreover, half-maximal inhibition in [2] (IC50) was put at 65.5 µM. Also, the result in the experiment with Rattus norvegicus [3], in the experiment on Rattus norvegicus [8] and in the experiment with Rattus norvegicus [10] was Active. Besides, the Activity in the experiment on Rattus norvegicus [4] is reported as 18.7%; in the experiment with Rattus norvegicus [9], 32.5%. In addition, the inhibition result in [6] is “inactive”.

Turning to `CCCCN(CCCC)CC1(CN(CCCC)CCCC)COc2ccc3c(C)cc(=O)oc3c2C1=O`, the inhibition in [1] was determined as 20.4%; in [5], 11.4%; in experiment [7], 43.6%; in [11] it was 11.1%. In addition, the inhibition entry in experiment [6] was “inactive”.

As for `CCOCC1(CN2CCCC2)COc2ccc3c(C)cc(=O)oc3c2C1=O` (stereo not drawn), the inhibition in experiment [1] was 8.31%; in experiment [5] it was 13.2%; in [6] it was 12%; in experiment [7], 72.1%; in experiment [11], 8.3%. Further, the IC50 in experiment [2] came to 82.7 µM. In addition, the figures for the Activity in the experiment on Rattus norvegicus [4] and with Rattus norvegicus [9] were 28.8% and 31.8%, respectively.
